Measurements published in ChEMBL document CHEMBL1255316, “A peptide with a ProGln C terminus in the human saliva peptidome exerts bactericidal activity against Propionibacterium acnes” (Antimicrob Agents Chemother, 2008).
Activity calls are given as the source filed them. The calls are words filed in the database; no cut-off is given here. Residues, ends and D or L forms follow the SMILES beside them.

Legend:
Cell membrane [1] = assay: Binding affinity to membrane of Propionibacterium acnes ATCC 6919 at 10 uM after 1 hr by fluorescence microscopy under anaerobic condition; assay type: functional; details: Cutibacterium acnes, Plasma membrane
Cutibacterium acnes [2] = assay: Antibacterial activity against Propionibacterium acnes assessed as attenuation of colonization at 10 uM incubated with compound for 3 hrs measured after 2 days; assay type: functional, organism-based
Porphyromonas gingivalis = assay: Binding affinity to membrane of Porphyromonas gingivalis ATCC 33277 at 10 uM after 1 hr by fluorescence microscopy under anaerobic condition; assay type: functional
Cell membrane [3] = assay: Binding affinity to membrane of Propionibacterium acnes ATCC 6919 at 1 uM after 1 hr by fluorescence microscopy under anaerobic condition; assay type: functional; details: Cutibacterium acnes, Plasma membrane
Cutibacterium acnes [4] = assay: Antibacterial activity against Propionibacterium acnes assessed as attenuation of colonization at 1 uM incubated with compound for 3 hrs measured after 2 days; assay type: functional, organism-based
Cutibacterium acnes [5] = assay: Antibacterial activity against Propionibacterium acnes assessed as attenuation of colonization at 100 uM incubated with compound for 3 hrs measured after 2 days; assay type: functional, organism-based

Compound | Activity (Cell membrane [1]) | Activity (Cutibacterium acnes [2]) | Activity (Porphyromonas gingivalis) | Activity (Cell membrane [3]) | Activity (Cutibacterium acnes [4]) | Activity (Cutibacterium acnes [5])
N=C(N)NCCC[C@H](NC(=O)[C@H](CCCCN)NC(=O)CNC(=O)[C@@H](N)CS)C(=O)N[C@@H](CCCCN)C(=O)O (H-CGKRK-OH) | inactive |  |  |  |  | 
N=C(N)NCCC[C@H](NC(=O)CNC(=O)CNC(=O)[C@H](CCC(N)=O)NC(=O)[C@@H]1CCCN1C(=O)[C@@H]1CCCN1C(=O)[C@@H]1CCCN1C(=O)CN)C(=O)N1CCC[C@H]1C(=O)N[C@@H](CCC(N)=O)C(=O)O (H-GPPPQGGRPQ-OH) | Active | Active | inactive | Active | Active | Active
